Measurements from ChEMBL document CHEMBL1128273, “Quantitative structure-activity relationships of the inhibition of Pneumocystis carinii dihydrofolate reductase by 4,6-diamino-1,2-dihydro-2,2-dimethyl-1-(X-phenyl)-s-triazines” (J Med Chem, 1995).

System: not listed separately
Assay: Partition coefficient (logP)
Assay type: physicochemical
Settings: octanol/water

Compound | logP
CN(C)C(=O)c1cccc(COc2ccc(N3C(N)=NC(N)=NC3(C)C)cc2Cl)c1 | -1.84
CC1(C)N=C(N)N=C(N)N1c1ccc(CCCCc2ccc(S(=O)(=O)F)cc2Cl)c(Cl)c1 | 2.42

Target: T1, Dihydrofolate reductase (Homo sapiens, UniProt P00374)
T1 sequence (P00374 whole entry): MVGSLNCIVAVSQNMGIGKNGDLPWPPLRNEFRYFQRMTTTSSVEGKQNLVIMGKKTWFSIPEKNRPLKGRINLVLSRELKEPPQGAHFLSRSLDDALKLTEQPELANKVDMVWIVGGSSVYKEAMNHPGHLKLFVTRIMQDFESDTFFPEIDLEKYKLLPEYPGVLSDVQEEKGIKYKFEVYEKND
Assay: Inhibition of human dihydrofolate reductase (DHFR)
Settings: read-out: Log 1/Ki (converted)

Compound | Ki
CC1(C)N=C(N)N=C(N)N1c1cccc(COc2cccc3ccccc23)c1 | 135 nM
CC1(C)N=C(N)N=C(N)N1c1cccc(SCc2ccccc2)c1 | 42.7 nM

System: not listed separately
Assay: Selectivity index as the ratio of Ki value towards Human DHFR to that of Pneumocystis carinii DHFR.
Settings: not given

Compound | Selectivity index
CC1(C)N=C(N)N=C(N)N1c1cccc(COc2cccc3ccccc23)c1 | 1.38
CC1(C)N=C(N)N=C(N)N1c1cccc(SCc2ccccc2)c1 | 1.18
CCOc1cc(Cc2cnc(N)nc2N)cc(OCC)c1-n1cccc1 [EPIROPRIM] | 0.53
CC1(C)N=C(N)N=C(N)N1c1cccc(OCC23CC4CC(CC(C4)C2)C3)c1 | 1.66

Target: T2, Dihydrofolate reductase (Pneumocystis carinii, UniProt P16184)
T2 sequence (P16184 whole entry): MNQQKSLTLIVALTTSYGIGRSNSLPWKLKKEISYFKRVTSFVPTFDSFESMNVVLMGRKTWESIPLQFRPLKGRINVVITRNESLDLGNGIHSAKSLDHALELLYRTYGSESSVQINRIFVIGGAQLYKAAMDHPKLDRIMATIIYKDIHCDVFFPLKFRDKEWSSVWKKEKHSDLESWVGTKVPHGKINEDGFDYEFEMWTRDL
Settings: not given

Ki | Compound
251 nM | CSc1ccc(N2C(N)=NC(N)=NC2(C)C)cc1
214 nM | CC(C)(C)c1cccc(N2C(N)=NC(N)=NC2(C)C)c1
15.8 nM | CCCCCCCCCCc1ccc(N2C(N)=NC(N)=NC2(C)C)cc1
132 nM | CC1(C)N=C(N)N=C(N)N1c1ccc(C(F)(F)F)cc1
1170 nM | CC1(C)N=C(N)N=C(N)N1c1cccc(C(O)c2ccccc2)c1 (stereo not drawn)
2.82 nM | CC1(C)N=C(N)N=C(N)N1c1cccc(SCc2ccccc2)c1
17.4 nM | CCOc1cc(Cc2cnc(N)nc2N)cc(OCC)c1-n1cccc1 [EPIROPRIM]
6310 nM | CCOc1cccc(N2C(N)=NC(N)=NC2(C)C)c1
6.31 nM | CCCCCCCCc1ccc(N2C(N)=NC(N)=NC2(C)C)cc1
4.79 nM | CC(C)c1cccc(OCc2cccc(N3C(N)=NC(N)=NC3(C)C)c2)c1
257 nM | CCCCCOc1ccc(N2C(N)=NC(N)=NC2(C)C)cc1
7.94 nM | CCCCCCc1ccc(N2C(N)=NC(N)=NC2(C)C)cc1
6.31 nM | CCCCCCCc1ccc(N2C(N)=NC(N)=NC2(C)C)cc1
17 nM | CCCCCc1ccc(OCc2cccc(N3C(N)=NC(N)=NC3(C)C)c2)cc1
4.57 nM | CC1(C)N=C(N)N=C(N)N1c1cccc(COc2cccc(NC(N)=O)c2)c1
166 nM | Cc1ccc(N2C(N)=NC(N)=NC2(C)C)cc1
4.47 nM | CC1(C)N=C(N)N=C(N)N1c1cccc(COc2cccc(-c3ccccc3)c2)c1
4.17 nM | CCc1cccc(OCc2cccc(N3C(N)=NC(N)=NC3(C)C)c2)c1
8.32 nM | CC1(C)N=C(N)N=C(N)N1c1cccc(COc2cccc(C#N)c2)c1
3.24 nM | CC(=O)Nc1cccc(OCc2cccc(N3C(N)=NC(N)=NC3(C)C)c2)c1
631 nM | CCCCOc1ccc(N2C(N)=NC(N)=NC2(C)C)cc1
2510 nM | CC1(C)N=C(N)N=C(N)N1c1ccc(O)cc1
100 nM | CCCCCCOc1ccc(N2C(N)=NC(N)=NC2(C)C)cc1
38 nM | CC1(C)N=C(N)N=C(N)N1c1cccc(OCCCCOc2ccccc2)c1
6.76 nM | CCCCCCCCCOc1cccc(N2C(N)=NC(N)=NC2(C)C)c1
19.5 nM | Cc1cccc(OCc2cccc(N3C(N)=NC(N)=NC3(C)C)c2)c1

Compound | Ki
CC1(C)N=C(N)N=C(N)N1c1cccc(COc2cccc3ccccc23)c1 | 5.37 nM
CC1(C)N=C(N)N=C(N)N1c1cccc(COc2cccc(Cl)c2)c1 | 12 nM
CC1(C)N=C(N)N=C(N)N1c1cccc(OCCOc2cccc(C(F)(F)F)c2)c1 | 22.4 nM
CCCCCCOc1cccc(N2C(N)=NC(N)=NC2(C)C)c1 | 21.4 nM
CC1(C)N=C(N)N=C(N)N1c1cccc(SCc2ccc(Cl)cc2)c1 | 2.63 nM
CC1(C)N=C(N)N=C(N)N1c1cccc(CNc2cc(C(N)=O)cc(C(N)=O)c2)c1 | 15.1 nM
CCCCCCCCCCCOc1cccc(N2C(N)=NC(N)=NC2(C)C)c1 | 18.6 nM
CCCCCCCCCCCCCCOc1cccc(N2C(N)=NC(N)=NC2(C)C)c1 | 331 nM
CC1(C)N=C(N)N=C(N)N1c1cccc(OCC23CC4CC(CC(C4)C2)C3)c1 | 17 nM
CC1(C)N=C(N)N=C(N)N1c1cccc(OCc2ccccc2)c1 | 64.6 nM
CC1(C)N=C(N)N=C(N)N1c1cccc(COc2cccc(CO)c2)c1 | 25.1 nM
COc1cccc(OCc2cccc(N3C(N)=NC(N)=NC3(C)C)c2)c1 | 7.76 nM
CC1(C)N=C(N)N=C(N)N1c1cccc([N+](=O)[O-])c1 | 132 nM
CCOC(=O)c1cccc(N2C(N)=NC(N)=NC2(C)C)c1 | 2340 nM
